The record followed here is patent publication US8445006B2, “Biomolecular coating for implants” (Georgia Tech Research Corporation, priority 2006, dated 2013).

Assay [1] has as its system bone marrow stromal cells. The experiment in a line: Osteoblast-specific gene expression by qRT-PCR. Format: cell-based, rat. As for the experimental part: Primary bone marrow stromal cells were harvested from the femora of young adult male Wistar rats in accordance with an IACUC-approved protocol. After excision, hindleg femora and tibiae were cleared of soft tissue and rinsed in growth medium (α-minimal essential medium supplemented with 10% fetal bovine serum, 1% penicillin-streptomycin, and 0.3 μg/ml amphotericin B). The ends of the long bones were then removed and the marrow space was flushed with culture medium (3-5 ml), using a syringe with an 18-gauge needle. Marrow isolates were pooled, centrifuged, resuspended in growth medium, and seeded for adhesion-dependent selection on tissue culture polystyrene dishes. Non-adherent hematopoietic cells were removed during subsequent medium exchanges, which occurred every other day. Cells were subcultured every two days according to standard techniques. For in vitro osteogenic assays, cells were seeded at 10,000 cells/cm^2 in growth medium. After 24 h, cultures were maintained in osteogenic medium consisting of growth medium supplemented with 50 μg/ml L-ascorbic acid and 3 mM sodium β-glycerophosphate.
Gene expression was analyzed by qRT-PCR. Total RNA was isolated at 7 days in culture using the Qiagen RNeasy RNA isolation kit. During RNA isolation and purification, samples were treated with DNaseI (27 Kunitz units/sample) for 15 min at room temperature to eliminate any genomic DNA contamination. The concentration of purified RNA was quantified using a NanoDrop™ (NanoDrop Technologies) and 1 μg of total RNA was used to synthesize cDNA templates by oligo(dT) priming using the Superscript First-Strand cDNA Synthesis System™.
qRT-PCR was performed with the ABI Prism 7700 Sequence Detection System (Applied Biosystems; 40 cycles; melting for 15 s at 95° C.; annealing and extending for 60 s at 60° C.) using SYBR Green DNA intercalating dye. Gene transcript concentration in the sample cDNA template solutions was quantified by preparing a functional range of dilutions from an absolute standard for each gene. Linear standard curves were then generated by plotting the log of the known concentration versus the CT value (the cycle number at which the fluorescence reached a threshold level). Oligonucleotide primers (Table 1) were designed using Primer Express™ software (Applied Biosystems).

The subject of assay [2] is rat tibia cortical bone. The experiment in a line: Rat tibia cortical bone implantation, histology and bone-implant contact histomorphometry. Format: in vivo. The following applies: 4 weeks; for histology: bone matrix around implants: poly(OEGMA) brush implants, 0.9 pmol/cm^2. As for the experimental part:
(§1) Commercially pure titanium implants (FIG. 4) were sonicated in de-ionized water for 20 min to remove surface debris. Implants were then dipped in 4% HF for 30 sec to remove the existing oxide layer and then incubated in 35% HNO3 for 30 min at 50° C. to regenerate a new oxide coating. Samples were transferred to 1.8 N NaOH for 1 min to terminate the oxidation reaction. Implants were then rinsed and boiled in de-ionized water for 1 h. To create the bioactive coating, the implants were incubated in 20 μg/ml GFOGER peptide (SEQ ID NO:1) or type I collagen solution for 1 h. Control titanium rods were incubated in PBS.
(§2) Implantations were conducted in accordance with an IACUC-approved protocol. Both hind legs of anesthetized, mature Sprague-Dawley male rats (250-350 g) were shaved and scrubbed with alcohol. The medial aspect of the proximal tibial metaphysis was exposed through an antero-medial skin incision, leaving the medial collateral ligament intact. Using a saline-cooled drill, two defects were created in each tibia. Sterile implant rods were press fit into the defects. Periosteum was mobilized and sutured over the implantation site, and the skin was closed with wound clips. Subjects were euthanized after 4 weeks and proximal tibiae were fixed in neutral buffered formalin for histology or recovered without fixation and maintained in PBS-moistened gauze for immediate mechanical testing.
Excised tibiae were fixed in 10% neutral buffered formalin for 1 week. […] Ground sections of 50-80 μm were generated using the Exakt Grinding System™. Two longitudinal ground sections were generated per tibia, each containing two titanium plugs inserted transverse to the tibia's long axis. Sections were then stained with Sanderson's Rapid Bone Stain™ and a van Gieson counter stain. Bone implant contact (BIC) was measured as the percentage of implant's circumference that was in direct contact with bone tissue (Adobe Photoshop® CS imaging software).
(§3) To evaluate the performance of the bioactive GFOGER peptide (SEQ ID NO:1) treatment in vivo, osseointegration in a rat tibia cortical bone model was quantified using quantitative histomorphometry and pull-out mechanical testing. A cylindrical titanium implant rod with a tapered stop collar was designed (FIG. 4). The tapered head ensures that all implants are inserted into the bone at the same depth, guaranteeing uniform bone contact among treatments. Using a saline-cooled drill, two defects 2 mm in diameter were created in the medial aspect of the proximal tibial metaphysis. Implant rods consisting of GFOGER peptide (SEQ ID NO:1) functionalized or untreated (control) titanium were press fit into the cortical defects. After four weeks, the rat tibiae were harvested and evaluated for bone apposition by histological staining and mechanical integration by pull-out testing. […] Representative micrographs show 50-80 μm longitudinal ground sections of rat tibia stained with Sanderson's Rapid Bone Stain™ and van Gieson counterstain. Cells stain dark to light blue, soft tissue elements stain blue-green, and bone matrix stains yellow orange to autumn orange.
(§4) Osseointegration of implants in a rat tibia cortical bone model was quantified to evaluate the in vivo performance of the engineered titanium surfaces in bone healing. Importantly, this in vivo model provides a rigorous platform to evaluate implant coating function in a relevant orthopaedic setting. Two 2.0-mm diameter defects were drilled into the medial aspect of the proximal tibial metaphysis using a saline cooled drill. Tapered cylindrical implants (FIG. 4) of clinical-grade titanium were press-fit into the cortical defects.

Assay [3] has as its system rat tibia cortical bone. The assay can be described thus: Rat tibia cortical bone implantation, pull-out mechanical testing. The assay is classed as in vivo. As for the experimental part: as §1, §2, §3, §4
[4] abbreviates: 7-day cultures, tethered brushes vs RGD supports.
Setting [5] is: 4 weeks, tethered brushes 0.9 pmol/cm^2.
Setting [6] is: 7 day cultures, adsorbed coating vs untreated titanium.

Turning to “FNIII7-10: monobiotinylated recombinant fibronectin fragment spanning the 7-10th type III repeats of fibronectin; α5β1 integrin ligand”, in assay [1] (setting [4]), the “bone sialoprotein (BSP) transcript levels” value was “increased transcript levels” and the “osteocalcin (OCN) transcript levels” value is given as “increased transcript levels”. Further, the Runx2/Cbfa1 expression levels result in assay [1] (7-day cultures, tethered brushes vs equimolar RGD brushes) was “elevated”. Also, the bone-implant apposition entry in assay [2] (passively coated (20 μg/ml) vs unmodified titanium or pFN-coated) was “enhanced bone-implant apposition”. In assay [2], the “histology: bone matrix around implants” value is “extensive and contiguous bone matrix”. In addition, the “bone-implant contact area vs unmodified titanium implant” value in assay [2] (tethered brush implants) is given as “significantly higher”. For the same substance, the “mechanical fixation vs unmodified titanium” value in assay [3] (4 weeks, tethered brushes) is “higher mechanical fixation”. Further, in assay [3] (setting [5]), the “enhancement in fixation over RGD-tethered implants” value is 2.9 fold and the “improvement in fixation compared to unmodified poly(OEGMA) brush coating” value is listed as roughly 4 fold. Moreover, the “dependence of mechanical fixation on tethered surface density” value in assay [3] (varying tethered densities, hyperbolic relationship R^2=0.87) is recorded as “increased with FNIII7-10 surface density”.
Regarding “GGYGGGPC(GPP)5GFOGER(GPP)5GPC [GFOGER peptide]”, in assay [1] (setting [6]), the Runx2/Cbfa1 expression levels entry is given as “elevated”, the “bone sialoprotein gene expression” value is recorded as “greater levels of gene expression” and the osteocalcin gene expression result is listed as “greater levels of gene expression”. Further, the “bone apposition (bone implant contact, BIC)” value in assay [2] (passively coated implants vs untreated titanium) is “nearly two-fold enhancement”. The “histology: peri-implant bone mineral” value in assay [2] (passively coated titanium implants (20 μg/ml)) is “substantial and contiguous bone mineral”. The “mechanical fixation (pull-out force)” value in assay [3] (4 weeks, vs type I collagen or untreated titanium) was “significantly higher mechanical fixation”.
For “GRGDSPC [RGD peptide, linear RGD oligopeptide purchased from BACHEM; primarily supports αvβ3-mediated adhesion, reference compound]”, the “any differentiation marker vs serum-exposed unmodified titanium” value in assay [1] (tethered brushes) is given as “No differences were observed”. Also, the “histology: bone matrix around implants” value in assay [2] is listed as “Less bone tissue was observed”. For the same substance, the “bone apposition and mechanical fixation among brush implant groups” value in assay [3] (4 weeks, poly(OEGMA) brush implants) is reported as “no differences in bone apposition or mechanical fixation”.
